Molecular target: T1, human glucocorticoid receptor (GR) complex (Homo sapiens, UniProt P04150)
T1 construct: made in house; host or cells: insect expression system (baculovirus lysate)
T1 sequence (P04150 1-777): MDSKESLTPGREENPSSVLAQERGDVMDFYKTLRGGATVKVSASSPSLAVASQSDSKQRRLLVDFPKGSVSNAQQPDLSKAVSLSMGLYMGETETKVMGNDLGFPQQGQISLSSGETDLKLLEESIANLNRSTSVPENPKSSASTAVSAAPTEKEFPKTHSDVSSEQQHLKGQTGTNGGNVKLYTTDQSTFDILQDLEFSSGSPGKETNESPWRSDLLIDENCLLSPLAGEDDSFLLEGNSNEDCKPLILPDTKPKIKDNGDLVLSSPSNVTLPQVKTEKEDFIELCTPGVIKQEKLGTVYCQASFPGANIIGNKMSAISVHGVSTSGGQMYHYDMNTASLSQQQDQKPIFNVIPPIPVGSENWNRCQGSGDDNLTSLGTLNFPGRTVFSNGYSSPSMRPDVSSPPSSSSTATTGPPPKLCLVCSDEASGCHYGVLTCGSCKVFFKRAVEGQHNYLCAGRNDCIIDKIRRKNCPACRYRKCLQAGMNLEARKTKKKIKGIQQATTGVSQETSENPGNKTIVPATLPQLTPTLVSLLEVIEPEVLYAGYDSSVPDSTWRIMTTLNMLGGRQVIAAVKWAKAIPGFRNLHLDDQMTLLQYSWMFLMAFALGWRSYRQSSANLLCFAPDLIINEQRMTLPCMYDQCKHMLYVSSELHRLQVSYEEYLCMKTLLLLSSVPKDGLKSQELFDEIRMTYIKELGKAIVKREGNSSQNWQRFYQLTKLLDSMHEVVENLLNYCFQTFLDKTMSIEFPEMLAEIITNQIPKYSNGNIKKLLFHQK
Assay: Glucocorticoid Receptor Competitive Binding Assay (fluorescence polarization, TAMRA-labeled dexamethasone probe)
Conditions: qualitative statement; competition with TAMRA-labeled dexamethasone
Experimental: Compounds of the invention were evaluated for binding to the steroid receptor by a fluorescence polarization competitive binding assay.
A. Glucocorticoid Receptor Competitive Binding Assay
Step 1. Characterization of the Fluorescent Probe
The wavelengths for maximum excitation and emission of the fluorescent probe should first be measured. An example of such a probe is rhodamine (TAMRA)-labeled dexamethasone.
The affinity of the probe for the steroid receptor was then determined in a titration experiment. The fluorescence polarization value of the probe in assay buffer was measured on an SLM-8100 fluorometer using the excitation and emission maximum values described above. Aliquots of expression vector lysate were added and fluorescence polarization was measured after each addition until no further change in polarization value was observed. Non-linear least squares regression analysis was used to calculate the dissociation constant of the probe from the polarization values obtained for lysate binding to the probe.
Step 2. Screening for Inhibitors of Probe Binding
This assay uses fluorescence polarization (FP) to quantitate the ability of test compounds to compete with tetramethyl rhodamine (TAMRA)-labeled dexamethasone for binding to a human glucocorticoid receptor (GR) complex prepared from an insect expression system. The assay buffer was: 10 mM TES, 50 mM KCl, 20 mM Na2MoO4. 2H2O, 1.5 mM EDTA, 0.04% w/v CHAPS, 10% v/v glycerol, 1 mM dithiothreitol, pH 7.4. Test compounds were dissolved to 1 mM in neat DMSO and then further diluted to 10× assay concentration in assay buffer supplemented with 10% v/v DMSO. Test compounds were serially diluted at 10× assay concentrations in 10% DMSO-containing buffer in 96-well polypropylene plates. […] Positive controls were reaction mixtures containing no test compound; negative controls (blanks) were reaction mixtures containing 0.7 μM to 2 μM dexamethasone. […] IC50 values were determined by iterative non-linear curve fitting of the FP signal data to a 4-parameter logistic equation.

| SMILES | activity in the GR binding assay |
| --- | --- |
| CC(C)(CC(O)(Cn1cc(C#N)c2ccccc21)C(F)(F)F)c1cccc2c1OCC2 (centres unmarked) [1-[4-(2,3-Dihydrobenzofuran-7-yl)-2-hydroxy-4-methyl-2-trifluoromethylpentyl]-1H-indole-3-carbonitrile] | potent activity |
| CC(C)(CC(O)(Cc1[nH]c2ccccc2c1C#N)C(F)(F)F)c1ccc(F)cc1 (centres unmarked) [2-[4-(4-Fluorophenyl)-2-hydroxy-4-methyl-2-trifluoromethylpentyl]-1H-indole-3-carbonitrile] | potent activity |
| Cc1ccc(C(C)(C)CC(O)(Cc2ccnc3ccccc23)C(F)(F)F)cc1 (centres unmarked) [1,1,1-Trifluoro-4-methyl-2-quinolin-4-ylmethyl-4-p-tolylpentan-2-ol] | potent activity |
| CC(C)(CC(O)(Cc1cc(Cl)nc(Cl)c1)C(F)(F)F)c1cc(F)ccc1O (centres unmarked) [2-[3-(2,6-Dichloropyridin-4-ylmethyl)-4,4,4-trifluoro-3-hydroxy-1,1-dimethylbutyl]-4-fluorophenol] | potent activity |
| CC(C)(CC(O)(Cc1cc2ccccc2[nH]1)C(F)(F)F)c1ccsc1 (centres unmarked) [1,1,1-Trifluoro-2-(1H-indol-2-ylmethyl)-4-methyl-4-thiophen-3-ylpentan-2-ol] | potent activity |
| Cc1c(CC(O)(CC(C)(C)c2cc(F)ccc2O)C(F)(F)F)[nH]c2cnccc12 (centres unmarked) [4-Fluoro-2-[4,4,4-trifluoro-3-hydroxy-1,1-dimethyl-3-(3-methyl-1H-pyrrolo[2,3-c]pyridin-2-ylmethyl)butyl]phenol] | potent activity |
| COc1ccc(F)cc1C(C)(C)CC(O)(Cc1cc2ccccc2[nH]1)C(C)C (centres unmarked) [5-(5-Fluoro-2-methoxyphenyl)-3-(indol-2-ylmethyl)-2,5-dimethylhexan-3-ol] | potent activity |
| CC(C)(CC(O)(Cc1cc2ccncc2[nH]1)C(F)(F)F)c1ccc(F)cc1 (centres unmarked) [1,1,1-Trifluoro-4-(4-fluorophenyl)-4-methyl-2-(1H-pyrrolo[2,3-c]pyridin-2-ylmethyl)pentan-2-ol] | potent activity |
| COc1ccc(F)cc1C(C)(C)CC(O)(Cc1nc2ccc(F)cc2[nH]1)C(F)(F)F (centres unmarked) [1,1,1-Trifluoro-2-(6-fluoro-1H-benzoimidazol-2-ylmethyl)-4-(5-fluoro-2-methoxyphenyl)-4-methylpentan-2-ol] | potent activity |
| Cc1ccc(F)cc1C(C)(C)CC(O)(Cc1nc2cccc(C)c2[nH]1)C(F)(F)F (centres unmarked) [1,1,1-Trifluoro-4-(5-fluoro-2-methylphenyl)-4-methyl-2-(7-methyl-1H-benzoimidazol-2-ylmethyl)pentan-2-ol] | potent activity |
| COc1ccc(Br)cc1C(C)(C)CC(O)(Cc1cc2c(C)cc(C#N)cc2[nH]1)C(F)(F)F (centres unmarked) [2-[4-(5-Bromo-2-methoxyphenyl)-2-hydroxy-4-methyl-2-trifluoromethylpentyl]-4-methyl-1H-indole-6-carbonitrile] | potent activity |
| CC(C)(CC(O)(Cc1ccnc2ccccc12)C(F)(F)F)c1ccsc1 (centres unmarked) [1,1,1-Trifluoro-4-methyl-2-quinolin-4-ylmethyl-4-thiophen-3-ylpentan-2-ol] | potent activity |
| COc1ccc(F)cc1C(C)(C)CC(O)(Cc1nc2ccccc2[nH]1)C(F)(F)F (centres unmarked) [2-(1H-Benzimidazol-2-ylmethyl)-1,1,1-trifluoro-4-(5-fluoro-2-methoxyphenyl)-4-methylpentan-2-ol] | potent activity |
| CC(C)(CC(O)(Cc1[nH]c2ccccc2c1C#N)C(F)(F)F)c1cccc2c1OCC2 (centres unmarked) | potent activity |
| CC(C)(CC(O)(Cc1cc2cccc(F)c2[nH]1)C(F)(F)F)c1cccc2c1OCC2 (centres unmarked) [4-(2,3-Dihydrobenzofuran-7-yl)-1,1,1-trifluoro-2-(7-fluoro-1H-indol-2-ylmethyl)4-methylpentan-2-ol] | potent activity |
| CC(C)(CC(O)(Cc1cc2cnccc2[nH]1)C(F)(F)F)c1ccc(F)cc1O (centres unmarked) [5-Fluoro-2-[4,4,4-trifluoro-3-hydroxy-1,1-dimethyl-3-(1H-pyrrolo[3,2-c]pyridin-2-ylmethyl)butyl]phenol] | potent activity |
| COc1ccc(F)cc1C(C)(C)CC(O)(Cn1cc(C)nc1-c1ccccc1)C(F)(F)F (centres unmarked) [2-(2-Phenyl-4-methylimidazol-1-ylmethyl)-1,1,1-trifluoro-4-(5-fluoro-2-methoxyphenyl)-4-methylpentan-2-ol] | potent activity |
| COc1c(C(C)(C)CC(O)(Cc2cc3ccccc3[nH]2)C(F)(F)F)ccc2ccccc12 (centres unmarked) [1,1,1-Trifluoro-2-(1H-indol-2-ylmethyl)-4-(1-methoxynaphthalen-2-yl)-4-methylpentan-2-ol] | potent activity |
| CC(C)(CC(O)(Cc1ccnc2ccccc12)C(F)(F)F)c1ccc2ccccc2c1O (centres unmarked) [2-(4,4,4-Trifluoro-3-hydroxy-1,1-dimethyl-3-quinolin-4-ylmethylbutyl)naphthalen-1-ol] | potent activity |
| CC(C)(CC(O)(Cc1cc2cc(C#N)ccc2[nH]1)C(F)(F)F)c1cccc2c1OCC2 (centres unmarked) [2-[4-(2,3-Dihydrobenzofuran-7-yl)-2-hydroxy-4-methyl-2-trifluoromethylpentyl]-1H-indole-5-carbonitrile] | potent activity |
| COc1ccc(F)cc1C(C)(C)CC(O)(Cc1nc2ccccc2[nH]1)C(C)(C)C (centres unmarked) [5-(5-Fluoro-2-methoxyphenyl)-3-(benzimidazol-2-ylmethyl)-2,2,5-trimethylhexan-3-ol] | potent activity |
| COc1ccc(F)cc1C(C)(C)CC(O)(Cc1nc2cccc(C)c2[nH]1)C(F)(F)F (centres unmarked) [1,1,1-Trifluoro-4-(5-fluoro-2-methoxyphenyl)-4-methyl-2-(7-methyl-1H-benzoimidazol-2-ylmethyl)pentan-2-ol] | potent activity |
| CC(C)(CC(O)(Cc1cc2ccccc2[nH]1)C(F)(F)F)c1cccc(O)c1 (centres unmarked) [3-[4,4,4-Trifluoro-3-hydroxy-3-(1H-indol-2-ylmethyl)-1,1-dimethylbutyl]phenol] | potent activity |
| CCC(O)(Cc1cc2ccccc2[nH]1)CC(C)(C)c1cc(F)ccc1OC (centres unmarked) [5-(5-Fluoro-2-methoxyphenyl)-3-(indol-2-ylmethyl)-5-methylhexan-3-ol] | potent activity |
| COC(=O)c1ccc2[nH]c(CC(O)(CC(C)(C)c3cc(Br)ccc3OC)C(F)(F)F)cc2c1 (centres unmarked) [2-[4-(5-Bromo-2-methoxyphenyl)-2-hydroxy-4-methyl-2-trifluoromethylpentyl]-1H-indole-5-carboxylic acid methyl ester] | potent activity |
| COc1ccc(F)cc1C(C)(C)CC(O)(Cc1cc2cc(F)ccc2[nH]1)C(F)(F)F (centres unmarked) [1,1,1-Trifluoro-2-(5-fluoro-1H-indol-2-ylmethyl)-4-(5-fluoro-2-methoxyphenyl)-4-methylpentan-2-ol] | potent activity |
| COc1ccc(F)cc1C(C)(C)CC(O)(Cc1nc2ccc(F)c(F)c2[nH]1)C(F)(F)F (centres unmarked) [2-(6,7-Difluoro-1H-benzoimidazol-2-ylmethyl)-1,1,1-trifluoro-4-(5-fluoro-2-methoxyphenyl)-4-methylpentan-2-ol] | potent activity |
| CCc1cccc(C(C)(C)CC(O)(Cc2cc3ccccc3[nH]2)C(F)(F)F)c1O (centres unmarked) [2-Ethyl-6-[4,4,4-trifluoro-3-hydroxy-3-(1H-indol-2-ylmethyl)-1,1-dimethylbutyl]phenol] | potent activity |
| CCc1cccc(C(C)(C)CC(O)(Cc2ccnc3ccccc23)C(F)(F)F)c1O (centres unmarked) [2-Ethyl-6-(4,4,4-trifluoro-3-hydroxy-1,1-dimethyl-3-quinolin-4-ylmethylbutyl)phenol] | potent activity |

Reference: patent US7553966B2, “Glucocorticoid mimetics, methods of making them, pharmaceutical compositions, and uses thereof” (Boehringer Ingelheim Pharmaceuticals, Inc., priority 2002, dated 2009)
